For orientation: inhibition means the change of the read-out against control, counted positive when it falls.

Results on 7 compounds are retold here after patent publication US4996230A, “Leukotriene antagonists” (Eli Lilly and Company, priority 1990, dated 1991).

This test deals with T1, leukotriene B4 specific receptor on the membrane of human neutrophils (Homo sapiens, UniProt Q15722).
T1 construct: a specific receptor on the membrane of human neutrophils; endogenous in cells; host or cells: human peripheral blood neutrophils (buffy coats of two blood donors; intact cells, at least 90% neutrophils)
Description: Inhibition of Binding of ^3H-LTB4 to Peripheral Human Neutrophils (radio-ligand binding assay). Particulars: 0.1-0.2 nM ^3H-LTB4, 10 minutes at 4° C., read-out: LTB4 Binding Inhibition (percent inhibition); for inhibition at 10 µM: Drug Concentration 10^-5 M; for inhibition at 1 µM: Drug Concentration 10^-6 M; for inhibition at 0.1 µM: Drug Concentration 10^-7 M. The method, then: Inhibition of Binding of ^3 H-LTB4 to Peripheral Human Neutrophils
The effectiveness of compounds to inhibit the binding of leukotriene B4 to a specific receptor on the membrane of human neutrophils was measured by using an adaptation of a radio-ligand binding assay developed by Goldman and Goetzl, J. Immunol., 129, 1600 (1982). Other investigators have developed similar assays (see, e.g., Kreisle, et al., J. Exp. Med., 157, 628 (1983) and Lin, et al., Prostaglandins, 28, 837 (1984)).
Cells used in the assay were isolated by standard techniques of centrifugation on Ficoll-Hypaque, dextran 70 sedimentation and hypotonic lysis. The following procedure was used. Freshly-prepared buffy coat layers from two individuals were obtained from a local blood donor center. The cells were mixed and diluted to 484 ml with phosphate buffered saline containing heparin (10 units/ml) and heat-inactivated calf serum (5%). This was divided into 20 ml aliquots and the aliquots layered on top of Ficoll-Paque (12 ml). The material was then centrifuged at 500 g for 40 minutes at room temperature. The resulting upper layer of platelets and mononuclear cells was discarded. The lower layer containing erythrocytes and neutrophils was retained. Buffer was added (1 ml per 4 ml of lower layer) and the suspension mixed. For each milliliter of this mixture, 0.33 ml of 6% Macrodex was added. After stirring, the cells were allowed to sediment for 1 hour at 37° C. The resulting erythrocyte pellet was discarded and the neutrophil enriched supernatant fluid centrifuged at 500 g for 10 minutes at 4° C. Erythrocytes still present in this cell pellet were lysed by incubating the cells with 5-8 ml ice-cold distilled water for 30-45 seconds. Subsequently, the volume was made up to 50 ml by addition of ice-cold buffer and the cells resuspended. The suspension was then centrifuged at 300 g for 10 minutes at 4° C. The cells were finally resuspended at a cell density of 2×10^7 cells/ml in the assay buffer. This buffer consisted of Hanks' balanced salt solution and 0.1% ovalbumin (pH 7.3).
The amount of bound ^3 H-LTB4 was then measured and compared with the amount bound in the absence of test compound. The assay was carried out in microcentrifuge tubes by adding first 10 μl test compound dissolved in DMSO, followed by adding 20 μl ^3 H-LTB4 diluted in assay buffer, and finally adding 500 μl of the cell suspension. At the end of the 10 minutes incubation, 300 μl of a mixture of dibutyl and dinonyl phthalate (7:2) were added and the tubes centrifuged for 2 minutes in a microcentrifuge. The radioactivity bound to the cell pellet was measured by scintillation spectroscopy. Appropriate corrections for nonspecific bonding of ^3 H-LTB4 were made.

T1 sequence (Q15722 whole entry): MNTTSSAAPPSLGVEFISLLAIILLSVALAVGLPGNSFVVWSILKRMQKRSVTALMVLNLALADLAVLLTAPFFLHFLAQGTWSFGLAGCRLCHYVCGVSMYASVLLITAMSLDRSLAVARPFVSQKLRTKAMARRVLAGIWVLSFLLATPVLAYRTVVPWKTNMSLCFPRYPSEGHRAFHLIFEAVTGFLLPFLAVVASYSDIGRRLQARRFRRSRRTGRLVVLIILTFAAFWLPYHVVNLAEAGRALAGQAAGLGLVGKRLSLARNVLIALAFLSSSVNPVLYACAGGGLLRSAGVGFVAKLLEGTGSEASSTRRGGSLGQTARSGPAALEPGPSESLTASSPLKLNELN

For `COc1ccc(CCCCCCOc2ccc3c(=O)c4cc(C(=O)O)ccc4oc3c2CCC(=O)O)cc1` [Example 7, 7-Carboxy-3-{[6-(4-methoxyphenyl)hexyl]oxy}-9-oxo-9H-xanthene-4-propanoic acid], the inhibition at 10 µM came out at 106%, the inhibition at 1 µM was determined as 103% and the inhibition at 0.1 µM was found to be 85%.
For the compound `COc1ccc(C=CCCCCOc2ccc3c(=O)c4cc(C(=O)O)ccc4oc3c2CCC(=O)O)cc1` [Example 6, 7-Carboxy-3-{[6-(4-methoxyphenyl)-5-hexenyl]oxy}-9-oxo-9H-xanthene-4-propanoic acid], the inhibition at 10 µM amounted to 102%, the inhibition at 1 µM turned out to be 99% and the inhibition at 0.1 µM was 91%.
For `CCCCCCCCCCOc1cc2oc3c(C(=O)O)cccc3c(=O)c2cc1CCC(=O)O` [Example 1, 5-Carboxy-3-(decyloxy)-9-oxo-9H-xanthene-2-propanoic acid], the inhibition at 1 µM was 25% and the inhibition at 0.1 µM was 2%.
Turning to `CCCCCCCCCCOc1ccc2c(=O)c3cccc(C(=O)O)c3oc2c1CCC(=O)O` [Example 2, 5-Carboxy-3-(decyloxy)-9-oxo-9H-xanthene-4-propanoic acid], the inhibition at 1 µM was determined as 27% and the inhibition at 0.1 µM was -7%.
Consider `CCCCCCCCCCOc1ccc2c(=O)c3cc(C(=O)O)ccc3oc2c1CCC(=O)O` [Example 4, 7-Carboxy-3-(decyloxy)-9-oxo-9H-xanthene-4-propanoic acid], for which the inhibition at 10 µM was determined as 102%, the inhibition at 1 µM amounted to 86% and the inhibition at 0.1 µM turned out to be 52%.
For `CCCCCCCCCCOc1cc2oc3ccc(C(=O)O)cc3c(=O)c2cc1CCC(=O)O` [Example 3, 7-Carboxy-3-decyloxy-9-oxo-9H-xanthene-2-propanoic acid], the inhibition at 1 µM was found to be 23% and the inhibition at 0.1 µM is -4%.
`CCCCCCCCCCOc1cc2c(cc1CCC(=O)O)C(=O)c1cc(C(=O)O)ccc1-2` [Example 8, 7-Carboxy-3-decyloxy-9-oxo-9H-fluorene-2-propanoic acid]: the inhibition at 10 µM was 68%, the inhibition at 1 µM came out at 19% and the inhibition at 0.1 µM is -4%.
